Literature values in US8309543B2 (priority 2003, dated 2012).
pIC50: −log10 of the molar value.

How the values were obtained:
NaV1.8 = NaV1.8 (Homo sapiens, UniProt Q9Y5Y9); settings: read-out: TTX IC50
NaV1.3 = NaV1.3 (Homo sapiens, UniProt Q9NY46); settings: read-out: TTX IC50
[1] = in vivo

Chain of NaV1.8 (Q9Y5Y9 whole entry, looked up): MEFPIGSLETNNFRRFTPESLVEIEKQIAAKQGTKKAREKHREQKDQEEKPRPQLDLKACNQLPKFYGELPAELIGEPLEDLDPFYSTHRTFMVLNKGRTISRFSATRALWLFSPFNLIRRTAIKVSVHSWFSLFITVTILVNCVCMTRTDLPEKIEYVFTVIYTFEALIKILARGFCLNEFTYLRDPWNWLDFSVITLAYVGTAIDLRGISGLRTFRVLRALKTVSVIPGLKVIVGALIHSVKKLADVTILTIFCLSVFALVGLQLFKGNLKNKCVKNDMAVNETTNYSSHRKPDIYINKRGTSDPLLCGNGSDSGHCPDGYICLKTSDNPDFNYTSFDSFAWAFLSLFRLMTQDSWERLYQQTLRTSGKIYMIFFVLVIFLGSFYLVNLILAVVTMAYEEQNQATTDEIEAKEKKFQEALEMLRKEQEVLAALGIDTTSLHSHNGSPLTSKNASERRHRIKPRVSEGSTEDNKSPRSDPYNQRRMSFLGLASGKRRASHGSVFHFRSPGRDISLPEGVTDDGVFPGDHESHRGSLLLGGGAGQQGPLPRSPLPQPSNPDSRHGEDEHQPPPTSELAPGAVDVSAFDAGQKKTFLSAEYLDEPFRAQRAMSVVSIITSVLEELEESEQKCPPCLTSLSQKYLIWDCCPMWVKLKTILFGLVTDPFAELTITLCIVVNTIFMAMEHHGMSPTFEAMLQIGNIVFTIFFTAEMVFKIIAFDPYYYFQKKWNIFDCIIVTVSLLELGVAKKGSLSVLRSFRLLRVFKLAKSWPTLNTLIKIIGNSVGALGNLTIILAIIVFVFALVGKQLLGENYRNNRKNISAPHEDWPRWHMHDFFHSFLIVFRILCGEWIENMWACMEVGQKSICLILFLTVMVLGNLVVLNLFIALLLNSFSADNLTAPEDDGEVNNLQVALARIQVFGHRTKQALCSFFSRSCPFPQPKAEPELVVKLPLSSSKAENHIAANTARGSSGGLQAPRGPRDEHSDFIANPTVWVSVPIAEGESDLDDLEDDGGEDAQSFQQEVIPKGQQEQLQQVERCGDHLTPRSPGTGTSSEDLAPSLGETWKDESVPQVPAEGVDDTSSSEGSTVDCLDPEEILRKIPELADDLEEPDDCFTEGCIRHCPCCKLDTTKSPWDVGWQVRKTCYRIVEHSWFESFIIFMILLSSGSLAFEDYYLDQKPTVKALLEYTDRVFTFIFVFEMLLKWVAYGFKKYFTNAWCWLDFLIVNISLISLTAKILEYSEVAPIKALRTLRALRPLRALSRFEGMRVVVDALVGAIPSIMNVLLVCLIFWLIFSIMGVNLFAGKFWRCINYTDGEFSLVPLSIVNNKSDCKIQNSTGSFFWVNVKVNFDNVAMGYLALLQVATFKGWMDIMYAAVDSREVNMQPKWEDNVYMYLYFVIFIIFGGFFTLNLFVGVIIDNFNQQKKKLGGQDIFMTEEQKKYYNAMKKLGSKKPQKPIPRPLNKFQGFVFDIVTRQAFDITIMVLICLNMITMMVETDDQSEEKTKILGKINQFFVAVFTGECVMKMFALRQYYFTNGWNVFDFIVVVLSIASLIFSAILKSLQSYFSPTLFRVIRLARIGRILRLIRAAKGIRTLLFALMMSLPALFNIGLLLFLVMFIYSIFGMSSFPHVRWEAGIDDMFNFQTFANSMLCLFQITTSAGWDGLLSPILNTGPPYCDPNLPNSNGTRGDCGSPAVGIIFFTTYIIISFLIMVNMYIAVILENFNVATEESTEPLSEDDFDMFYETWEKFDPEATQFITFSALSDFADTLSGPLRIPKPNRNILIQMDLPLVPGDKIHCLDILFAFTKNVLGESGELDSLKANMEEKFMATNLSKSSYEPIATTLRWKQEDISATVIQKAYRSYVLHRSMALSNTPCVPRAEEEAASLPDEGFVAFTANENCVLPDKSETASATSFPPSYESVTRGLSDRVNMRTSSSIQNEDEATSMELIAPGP
Chain of NaV1.3 (Q9NY46 whole entry, looked up): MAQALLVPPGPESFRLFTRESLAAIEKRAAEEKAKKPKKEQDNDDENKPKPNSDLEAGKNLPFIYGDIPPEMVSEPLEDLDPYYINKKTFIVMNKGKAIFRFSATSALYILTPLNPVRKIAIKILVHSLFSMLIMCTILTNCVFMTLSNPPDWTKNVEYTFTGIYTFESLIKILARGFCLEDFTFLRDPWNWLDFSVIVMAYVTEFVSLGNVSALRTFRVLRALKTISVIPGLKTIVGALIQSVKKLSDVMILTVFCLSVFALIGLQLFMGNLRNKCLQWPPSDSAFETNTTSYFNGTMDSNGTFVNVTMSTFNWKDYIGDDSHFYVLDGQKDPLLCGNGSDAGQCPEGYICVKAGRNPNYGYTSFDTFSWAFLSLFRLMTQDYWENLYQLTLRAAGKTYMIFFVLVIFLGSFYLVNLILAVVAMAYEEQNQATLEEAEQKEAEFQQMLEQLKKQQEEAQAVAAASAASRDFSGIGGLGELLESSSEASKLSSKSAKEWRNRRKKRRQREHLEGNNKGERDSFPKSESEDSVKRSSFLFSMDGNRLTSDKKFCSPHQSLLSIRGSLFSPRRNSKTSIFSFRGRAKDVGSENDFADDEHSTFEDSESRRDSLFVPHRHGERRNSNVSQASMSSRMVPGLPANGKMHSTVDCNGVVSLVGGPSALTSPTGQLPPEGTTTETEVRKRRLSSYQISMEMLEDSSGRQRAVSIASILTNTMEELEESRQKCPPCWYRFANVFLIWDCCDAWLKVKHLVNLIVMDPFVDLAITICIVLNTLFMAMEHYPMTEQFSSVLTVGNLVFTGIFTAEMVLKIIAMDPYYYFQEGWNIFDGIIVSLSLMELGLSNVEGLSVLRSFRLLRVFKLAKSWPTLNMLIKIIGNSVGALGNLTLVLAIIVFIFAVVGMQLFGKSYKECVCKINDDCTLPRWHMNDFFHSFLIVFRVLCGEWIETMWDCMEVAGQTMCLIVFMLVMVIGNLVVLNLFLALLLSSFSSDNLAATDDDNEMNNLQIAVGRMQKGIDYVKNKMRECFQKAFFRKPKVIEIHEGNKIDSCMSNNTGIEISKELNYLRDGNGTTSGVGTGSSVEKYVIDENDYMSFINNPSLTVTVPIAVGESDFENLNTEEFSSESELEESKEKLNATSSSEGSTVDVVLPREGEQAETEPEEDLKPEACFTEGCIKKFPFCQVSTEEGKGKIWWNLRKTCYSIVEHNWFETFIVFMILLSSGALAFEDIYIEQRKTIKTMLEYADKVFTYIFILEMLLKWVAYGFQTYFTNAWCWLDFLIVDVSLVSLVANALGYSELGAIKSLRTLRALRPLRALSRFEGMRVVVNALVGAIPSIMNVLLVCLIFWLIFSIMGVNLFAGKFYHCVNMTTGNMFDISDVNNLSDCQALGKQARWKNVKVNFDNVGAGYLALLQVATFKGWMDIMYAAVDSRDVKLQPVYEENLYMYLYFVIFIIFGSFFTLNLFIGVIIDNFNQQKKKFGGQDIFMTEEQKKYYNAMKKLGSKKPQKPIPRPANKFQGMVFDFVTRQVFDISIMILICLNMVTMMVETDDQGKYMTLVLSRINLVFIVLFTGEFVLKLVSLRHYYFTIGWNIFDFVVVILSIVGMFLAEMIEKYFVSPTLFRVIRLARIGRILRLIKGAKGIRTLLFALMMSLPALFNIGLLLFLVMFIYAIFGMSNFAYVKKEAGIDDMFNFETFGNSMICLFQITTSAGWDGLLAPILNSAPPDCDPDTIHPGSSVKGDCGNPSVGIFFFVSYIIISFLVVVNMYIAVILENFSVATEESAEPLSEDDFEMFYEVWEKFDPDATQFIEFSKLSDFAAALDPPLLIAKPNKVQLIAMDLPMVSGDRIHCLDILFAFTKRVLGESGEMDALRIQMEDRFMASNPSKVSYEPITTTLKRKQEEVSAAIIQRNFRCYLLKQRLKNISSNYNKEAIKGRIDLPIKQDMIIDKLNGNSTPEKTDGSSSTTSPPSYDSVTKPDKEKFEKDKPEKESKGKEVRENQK

SMILES	pIC50 (NaV1.8)	pIC50 (NaV1.3)	share of patients in which the drug works [1] [%]
NC1=N[C@H](O)[C@H]2[C@H]3O[C@]4(O)O[C@@H]([C@@H](O)[C@@]2(N1)[C@@H]4O)[C@]3(O)CO [TTX, tetrodotoxin]	< 4.30	7.82	
NCC1(CC(=O)O)CCCCC1 [Gabapentin]			60
